Reference: patent US20230042881A1, “MODULATORS OF INTEGRATED STRESS RESPONSE PATHWAY” (Praxis Biotech LLC, priority 2021, published 2023)
pIC50: −log10 of the molar value. Where two headings read alike, the source gives them in different places.

How the values were obtained:
ATF4 = ATF4 expression inhibition assay (ATF4 5′UTR luciferase reporter, thapsigargin-stressed); type: cell-based; settings: Homo sapiens, HEK-293T, read-out: ATF4 inhibition
Description: The ATF4 reporter was prepared by fusing the human full length 5′UTR of ATF4 (NCBI Accession No. BC022088.2) upstream of the firefly luciferase coding sequence lacking the initiator methionine. The fused sequence was cloned into pLenti-EF1a-C-Myc-DDK-IRES-Puro cloning vector (Origen #PS100085) using standard methods.
HEK293T cells carrying the ATF4 luciferase reporter were plated on 96-well plates (Nunc) at 10,000 cells per well. Cells were treated two days after seeding with 100 nM thapsigargin (Tg) (Sigma-Aldrich #T9033) in the presence of different concentrations of selected compounds ranging from 0.1 nM to […]. Cells without treatment or cells treated with Tg alone were used as controls. Assay plates containing cells were incubated for 3 hours at 37° C.
Luciferase reactions were performed using Luciferase Assay System (Promega #E1501) as specified by the manufacturer. Luminescence was read with an integration time of 1 s and a gain of 110 using a Cytation-5 multi-mode microplate reader (BioTek).

[1] = system: Chinese hamster ovary (CHO) cells; test: Protein synthesis assay (puromycin incorporation, Western blot); type: cell-based; settings: Cricetulus griseus, read-out: % Protein synthesis relative to untreated (1 μM test compound)
Description: Chinese hamster ovary (CHO) cells were maintained at 37° C. and 5% CO2 in Dulbecco's Modified Eagle's Media (DMEM) supplemented with 10% fetal bovine serum, 2 mM L-glutamine, 100 U/ml penicillin, and 100 μg/ml streptomycin. After reaching 80% of confluence, cells were detached and seeded on 6 well plates in complete media, allowed to recover overnight and treated for 2 hours with 1 μM of the test compound (to assess protein synthesis levels in unstressed condition), or for 2 hours with 300 nM Tg in the presence of 1 μM of the test compound (to assess the recovery of protein synthesis in a stressed condition). Cells with Tg alone were used as controls.
After the 2 hours treatments, media were replaced by adding 10 μg/ml puromycin (Sigma Aldrich #P8833) in complete media for 30 min. Media were removed and cells were lysed with SDS-PAGE lysis buffer. Lysates were transferred to 1.5 ml tubes and sonicated for 3 min and total protein amount were quantified using BCA Protein Assay Kit (Pierce). Equal amount of protein (30 μg) was loaded on SDS-PAGE gels.
A HRP-conjugated secondary antibody (Rockland) was employed to detect immune-reactive bands using enhanced chemiluminescence (ECL Western Blotting Substrate, Pierce). Quantification of protein bands was done by densitometry using ImageJ software.
The percentage levels were normalized to the media alone condition, which correspond to 100% protein synthesis. […]

[2] = HEK293T cells carrying ATF4 luciferase reporter, 100 nM thapsigargin (Tg), 3 hours at 37° C.
[3] = unstressed CHO cells (without Tg), 2 hours, 1 μM test compound, media alone = 100%

SMILES | pIC50 (ATF4; [2]) | activity at 1 µM [1, 3] | pIC50 (ATF4; 3 h) | activity at 1 µM ([1]; CHO, 2 h)
O=C(N[C@H]1CC[C@H](C(=O)NCC2CNc3cc(Cl)ccc3O2)CC1)c1ccc2cc(Cl)ccc2n1 (stereo partly drawn) [Compound 71, trans-6-chloro-N-(4-(((6-chloro-3,4-dihydro-2H-benzo[b][1,4]oxazin-2-yl)methyl)carbamoyl)cyclohexyl)quinoline-2-carboxamide] | > 8.00 | 174% | – | –
O=C(NN1CCC(C(=O)NCC2CNc3cc(Cl)ccc3O2)CC1)c1ccc2cc(Cl)ccc2n1 (stereo not drawn) [Compound 72, 6-chloro-N-(4-(((6-chloro-3,4-dihydro-2H-benzo[b][1,4]oxazin-2-yl)methyl)carbamoyl)piperidin-1-yl)quinoline-2-carboxamide] | > 8.00 | 92.2% | – | –
O=C(N[C@H]1CC[C@H](C(=O)NCC2CNc3cc(Cl)ccc3O2)CC1)c1cc2cc(Cl)ccc2o1 (stereo partly drawn) [Compound 75, 5-chloro-N-(trans-4-(((6-chloro-3,4-dihydro-2H-benzo[b][1,4]oxazin-2-yl)methyl)carbamoyl)cyclohexyl)benzofuran-2-carboxamide] | > 8.00 | 114% | – | –
O=C(N[C@H]1CC[C@H](C(=O)NCC2CNc3cc(Cl)ccc3O2)CC1)C1CNc2cc(Cl)ccc2O1 (stereo partly drawn) [Compound 77, 6-chloro-N-(trans-4-(((6-chloro-3,4-dihydro-2H-benzo[b][1,4]oxazin-2-yl)methyl)carbamoyl)cyclohexyl)-3,4-dihydro-2H-benzo[b][1,4]oxazine-2-carboxamide] | 7.00 to 8.00 | 76.6% | – | –
O=C(COc1ccc(Cl)c(F)c1)NN1CCC(C(=O)Nc2nc3cc(Cl)ccc3o2)CC1 [Compound 97, 1-(2-(4-chloro-3-fluorophenoxy)acetamido)-N-(5-chlorobenzo[d]oxazol-2-yl)piperidine-4-carboxamide] | – | – | 7.00 to 8.00 | 71.5%
O=C(N[C@H]1CC[C@H](C(=O)Nc2nc3cc(Cl)ccc3o2)CC1)c1ccc2cc(Cl)ccc2n1 [Compound 99, 6-chloro-N-(trans-4-((5-chlorobenzo[d]oxazol-2-yl)carbamoyl)cyclohexyl)quinoline-2-carboxamide] | – | – | 7.00 to 8.00 | 84.8%
O=C(NN1CCC(C(=O)Nc2nc3cc(Cl)ccc3o2)CC1)c1ccc2cc(Cl)ccc2n1 [Compound 100, 6-chloro-N-(4-(5-chlorobenzo[d]oxazol-2-ylcarbamoyl)piperidin-1-yl)quinoline-2-carboxamide] | – | – | 7.00 to 8.00 | 128%
O=C(COc1ccc(Cl)c(F)c1)NN1CCC(C(=O)Nc2nc3cc(Cl)ccc3s2)CC1 [Compound 116, 1-(2-(4-chloro-3-fluorophenoxy)acetamido)-N-(5-chlorobenzo[d]thiazol-2-yl)piperidine-4-carboxamide] | 7.00 to 8.00 | 116% | – | –
O=C(N[C@H]1CC[C@H](C(=O)Nc2nc3cc(Cl)ccc3s2)CC1)c1ccc2cc(Cl)ccc2n1 [Compound 118, 6-chloro-N-(trans-4-(5-chlorobenzo[d]thiazol-2-ylcarbamoyl)cyclohexyl)quinoline-2-carboxamide] | > 8.00 | 109% | – | –
O=C(NN1CCC(C(=O)Nc2nc3cc(Cl)ccc3s2)CC1)c1ccc2cc(Cl)ccc2n1 [Compound 119, 6-chloro-N-(4-(5-chlorobenzo[d]thiazol-2-ylcarbamoyl)piperidin-1-yl)quinoline-2-carboxamide] | > 8.00 | 118% | – | –
O=C(CO[C@H]1C[C@@H](OC(F)(F)F)C1)N[C@H]1CC[C@H](C(=O)Nc2nc3cc(Cl)ccc3s2)CC1 [Compound 120, trans-N-(5-chlorobenzo[d]thaizol-2-yl)-4-(2-(cis-3-(trifluoromethoxy)cyclobutoxy)acetamido)cyclohexanecarboxamide] | 7.00 to 8.00 | 122% | – | –
O=C(Nc1ccc2cc(Cl)ccc2n1)C1CCN(NC(=O)[C@H]2C[C@@H](O)c3cc(Cl)ccc3O2)CC1 [Compound 124, 1-((2R,4R)-6-chloro-4-hydroxychroman-2-carboxamido)-N-(6-chloroquinolin-2-yl)piperidine-4-carboxamide] | > 8.00 | 183% | – | –
